Results: paper PMC11558998, “Lipophilic bisphosphonates reduced cyst burden and ameliorated hyperactivity of mice chronically infected with Toxoplasma gondii” (mBio, 2024)

Tests used:
T. gondii ATQ^R R4 = experiment: In vitro growth inhibition, atovaquone resistant strain R4; format: cell-based; conditions: Toxoplasma gondii, read-out: EC50 ATQ^R R4, atovaquone resistant strain R4
Description: (§1) Experiments with T. gondii tachyzoites were carried out with parasites expressing a td-Tomato RFP ([48], [49]). For drug testing and growth assays, parasites were purified by passing them through a 25-gauge needle, followed by filtration through a 5 µm filter. Human fibroblasts were cultured in 96-well black plates for 48 (hTERT) or 120 (HFF) hours prior to the addition of 4,000 (type I) or 8,000 (type II) fluorescent tachyzoites per well. Fluorescence values were measured for up to 7 days (type I) and 21 days (type II), and both excitation (544 nm) and emission (590 nm) were read from the bottom of the plates in a Molecular Devices plate reader ([36]). The EC50s were calculated using GraphPad Prism software.

[1] = tested on: Pru-GFP brain tissue cysts in Balb/c mice; experiment: Treatment of Balb/c mice chronically infected with Pru-GFP; conditions: Balb/c mice, 1,500 Pru-GFP i.p., 5 mg/kg/day i.p. for 16 days from 28 dpi
Description: BALB/c male mice (Jackson Laboratory) were injected i.p. with a 200 µL suspension of 1,500 tachyzoites of the Pru-GFP strain T. gondii (type II genotype) (a gift from Laura Knoll). […] At 4 weeks post-infection, the brains of two mice were collected to check for the presence of cysts and to confirm that the mice were in the chronic stage. At this time, the remaining mice were injected i.p. daily for 16 consecutive days with 200 µL solvent (10% Kolliphor HS-15) or compounds dissolved in 10% HS-15. […] Mice were euthanized humanely 2 weeks after the final injection. The mouse brains were collected in 1 mL sterile PBS, minced with scissors, and homogenized using a glass homogenizer. Four 20 µL samples (80 µL total or 8% of sample) of each brain homogenate were placed on a glass microscope slide. Cysts were enumerated using a Delta Vision fluorescence microscope.

[2] = tested on: ex vivo bradyzoites of Me49-RFP from brains of chronically infected mice; experiment: Ex vivo bradyzoite viability assay, Me49-RFP; format: cell-based, Toxoplasma gondii; conditions: inhibitors 4 hours then drug-free 14 days, 3x EC50
Description: (§2) Brains of chronically infected mice were collected, homogenized with seven strokes in a glass homogenizer, and then enumerated on a Delta Vision microscope [protocol adapted from reference ([45])]. Twenty-five cysts per plate were then placed in a tube for acid/pepsin (170 mM sodium chloride, 60 mM hydrochloric acid, and 0.1 mg/mL pepsin) treatment for 10 minutes in a 37°C water bath. The cysts were then neutralized with 94 mM Na2CO3. The liberated bradyzoites were then equally distributed into a 12-well plate. For the growth assay, the cells were grown in the presence of compounds or DMSO for 12 and 14 days undisturbed. For the viability assays, the cells were treated with compounds or DMSO for 4 hours before being washed with 1× PBS and then grown for 12 and 14 days in media without compounds. After 12 and 14 days, the cells were fixed with 100% ethanol and stained with 2.5× crystal violet. The control DMSO plaque image is duplicated from Fig. 2B to be used as the representative image of plaques in Fig. 2A. Plaques were quantified on a light microscope using the 4× objective and the size of the plaques was measured using Fiji (ImageJ) software.

C2C12 myoblasts = experiment: Cytotoxicity on C2C12 myoblasts (Alamar Blue); format: cell-based
Description: (§3) The cytotoxicity was tested using an Alamar Blue assay as described by Recher et al. ([49]).

[3] = tested on: ex vivo bradyzoites of the Pru strain from chronically infected mice; experiment: Ex vivo bradyzoite viability assay, Pru; format: cell-based, Toxoplasma gondii; conditions: 3x EC50
Description: as §2

[4] = tested on: in vitro derived Pru cysts; experiment: Vacuole size of in vitro derived Pru cysts; format: cell-based, Toxoplasma gondii
Description: (§4) Type II Me49 or Pru was differentiated using compound 1 as previously described ([50]). Confluent HFF monolayers on glass coverslips (preincubated for 2 hours with 3 µM compound 1, as described previously) were infected with 5 × 10^3 tachyzoites of the ME49 or Pru (type 2) or EGS (type I/III) strain (no compound 1 for EGS). The cells were allowed to grow and differentiate in a 37°C incubator with ambient CO2 for 3 days (EGS was allowed to spontaneously differentiate for 4 days). […] After 7 days (Me49) or 8 days (EGS) of incubation, the cells were fixed with 3% paraformaldehyde for 10 minutes, permeabilized with 0.25% Triton X-100 for 10 minutes, and then blocked in 3% bovine serum albumin for 1 hour. The coverslips were then incubated in DBA rhodamine (for Me49)([51]) or DBA lectin (a kind gift from Diego Huet for EGS) and anti-SAG1 rat antibody (a kind gift from Vern Carruthers) for 2 hours. Then, the secondary anti-rat 488 was used to visualize the SAG1 antibody. The cells were then mounted onto microscope slides with fluoromount and DAPI (4′,6-diamidino-2-phenylindole). The slides were placed in the fridge for a minimum of 24 hours before imaging on a Delta Vision microscope. The vacuole sizes were calculated using ImageJ software.

[5] = tested on: T. gondii Pru strain (type II) tachyzoites; experiment: In vitro growth inhibition of red fluorescent tachyzoites, Pru strain; format: cell-based, Toxoplasma gondii; conditions: tachyzoite growth
Description: as §1

[6] = tested on: T. gondii Me49 strain (type II) tachyzoites; experiment: In vitro growth inhibition of red fluorescent tachyzoites, Me49 strain; format: cell-based; conditions: Toxoplasma gondii, tachyzoite growth
Description: as §1

[7] = tested on: toxoplasmosis relapse in patients; conditions: after 6 years of therapy; cited from earlier work
T. gondii tachyzoites = experiment: EC50 against tachyzoites indicated in Fig. 1E, used to set 3x and 5x concentrations; conditions: Toxoplasma gondii, read-out: indicated EC50 (shown in parentheses, Fig. 1E)
[8] = tested on: in vitro differentiated Me49 bradyzoites (cysts); experiment: Vacuole size of in vitro differentiated Me49 cysts (DBA/SAG1 IFA); format: cell-based, Toxoplasma gondii; conditions: positive control, concentration not stated in the sentence (Fig. 1C: 3x and 5x EC50)
Description: as §4

[9] = tested on: type I/III EGS strain cysts; experiment: Vacuole size of spontaneously formed EGS cysts; format: cell-based, Toxoplasma gondii; conditions: EGS spontaneous cysts, 3x EC50, 4 days
Description: as §4

[10] = tested on: Me49-RFP brain tissue cysts in Swiss Webster mice; experiment: Treatment of Swiss Webster mice chronically infected with Me49-RFP; format: in vivo, Toxoplasma gondii; conditions: Swiss Webster mice, 5,000 Me49-RFP i.p.
[11] = tested on: Human Foreskin Fibroblasts (HFF); experiment: Cytotoxicity on HFF cells (Alamar Blue); format: cell-based
Description: as §3

T. gondii ATQ^R R5 = experiment: In vitro growth inhibition, atovaquone resistant strain R5; format: cell-based; conditions: Toxoplasma gondii, read-out: EC50 ATQ^R R5
Description: as §1

[12] = tested on: Me49-RFP brain tissue cysts in CBA/j mice; format: in vivo, Toxoplasma gondii; conditions: 500 Me49-RFP i.p., 5 mg/kg/day i.p. for 16 days from 28 dpi, brains 2 weeks after treatment
Description: CBA/j female mice (Jackson Laboratory) were injected i.p. with a 200 µL suspension of 500 tachyzoites of the Me49-RFP strain T. gondii (type II genotype). […] At 4 weeks post-infection, the brains of two mice were collected to check for the presence of cysts and to confirm that the mice were in the chronic stage. At this time, the remaining mice were injected i.p. daily for 16 consecutive days with 200 µL solvent (10% Kolliphor HS-15) or compounds dissolved in 10% HS-15. […] Mice were euthanized humanely 2 weeks after the final injection. The mouse brains were collected in 1 mL sterile PBS, minced with scissors, and homogenized using a glass homogenizer. Four 20 µL samples (80 µL total or 8% of sample) of each brain homogenate were placed on a glass microscope slide. Cysts were enumerated using a Delta Vision fluorescence microscope.

[13] = tested on: ex vivo bradyzoites of the Pru strain from chronically infected mice; experiment: Ex vivo bradyzoite growth assay, Pru; format: cell-based, Toxoplasma gondii; conditions: 3x EC50
Description: as §2

[14] = tested on: hyperactivity of Balb/c mice chronically infected with Pru-GFP; experiment: CageDot continuous monitoring of mouse activity during chronic infection; conditions: 5 mg/kg/day i.p. 16 days, 15 dpt and 2 wpt
Description: At this time, the remaining mice were injected i.p. daily for 16 consecutive days with 200 µL solvent (10% Kolliphor HS-15) or compounds dissolved in 10% HS-15. […] Mice were euthanized humanely 2 weeks after the final injection.
Mice were monitored during the infection using the CageDot ([30], [31]), which detects vibrations. […] Data are collected at a 100 Hz sampling rate (each second, 100 data points were collected).

[15] = tested on: ex vivo bradyzoites of Me49-RFP from brains of chronically infected mice; experiment: Ex vivo bradyzoite growth assay, Me49-RFP; format: cell-based, Toxoplasma gondii; conditions: inhibitors present 14 days, 3x EC50
Description: as §2

[16] = tested on: T. gondii RH strain (type I) tachyzoites; experiment: In vitro growth inhibition of red fluorescent tachyzoites, RH strain; format: cell-based; conditions: Toxoplasma gondii, tachyzoite growth
Description: as §1

In the case of `O=C1C(O)=C([C@H]2CC[C@H](c3ccc(Cl)cc3)CC2)C(=O)c2ccccc21` [Atovaquone], the EC50 (T. gondii ATQ^R R4) is reported as 1900 nM, the “reduction of cyst burden” value [1] is reported as 71.9% and the “number of plaques, ex vivo viability” value [2] is reported as “only a minimal impact on viability”. For the same molecule, the “% Inhibition on C2C12” value (C2C12 myoblasts; 4X EC50) was 2.61 ± 4.48%, the “% Inhibition on C2C12” value (C2C12 myoblasts; 10X EC50) was 6.84 ± 5.34% and the “number of plaques, ex vivo viability” value [3] was “significant reduction in the number of plaques”. The vacuole size [4] was “decreased the vacuole size”, the EC50 [5] was 4.17 ± 2.34 nM and the EC50 [6] was 1.53 ± 0.229 nM. The patients experiencing relapse [7] was “up to 75%”, the EC50 (T. gondii tachyzoites) was 10 nM and the vacuole size [8] was “reduced vacuole size”. For the same molecule, the “size of the vacuoles (cysts)” value [9] was “reduced the size of the vacuoles”, the “reduction of cyst burden” value ([10]; ATQ at 5 mg/kg daily for 16 days) was 65.5% and the cyst size ([10]; daily treatment 16 days) was “reduced the size of the cysts”. The “% Inhibition on HFF” value ([11]; 4X EC50) was 4.69 ± 2.56%, the “% Inhibition on HFF” value ([11]; 10X EC50) was 7.23 ± 2.29% and the EC50 (T. gondii ATQ^R R5) was 1030 ± 290 nM. For the same molecule, the “reduction in the number of cysts compared to the control” value [12] was 56.6%, the “number of plaques, ex vivo growth” value [13] was “significant reduction in the number of plaques” and the “activity of infected mice (nightly average energy, CageDot)” value [14] was “decreased the activity of the infected mice to similar levels of the control uninfected mice”. For the same molecule, the “number of plaques, ex vivo growth” value [15] was “effective against bradyzoite growth”.

With `CCc1nc(N)nc(N)c1-c1ccc(Cl)cc1` [Pyrimethamine] the EC50 (T. gondii ATQ^R R4) was 22.1 ± 3.52 nM, the EC50 [16] was 383 ± 78 nM and the “% Inhibition on C2C12” value (C2C12 myoblasts; 4X EC50) was 2.39 ± 3.50%. For the same molecule, the “% Inhibition on C2C12” value (C2C12 myoblasts; 10X EC50) was 6.57 ± 1.31%, the EC50 ([5]; Toxoplasma gondii) was 43.2 ± 2.58 nM and the EC50 [6] was 1.67 ± 0.268 nM. For the same molecule, the “% Inhibition on HFF” value ([11]; 4X EC50) was 0.38 ± 2.61%, the “% Inhibition on HFF” value ([11]; 10X EC50) was 6.18 ± 0.98% and the EC50 (T. gondii ATQ^R R5) was 5.23 ± 0.221 nM.
